Data published in the supplement of paper PMC10307832.

Columns and labels:
Assay in all cases: relative viability (nuclei count vs DMSO), 5 days (fraction); higher = more cells survive
[1] = compound: CC(C)C[C@@H](C(=O)N[C@H](C(=O)OC1CCCC1)c1ccccc1)[C@H](O)C(=O)NO [Tosedostat] + COc1cc2c(Oc3ccc(NC(=O)C4(C(=O)Nc5ccc(F)cc5)CC4)cc3F)ccnc2cc1OCCCN1CCOCC1 [Foretinib] (partner 0.25 µM)
Method in brief: (§1)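 Values are medians from duplicate plates. Each reflects relative viability, defined as the nuclei count of treated wells over that of vehicle wells. Lung cancer cell lines in 1536-well plates were pin-tool dosed one day after seeding with one drug alone or with a fixed anchor-drug dose plus five library-drug doses (not always all listed) in √10 steps, then fixed, stained and imaged at 4× after 5 days.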

[2] = compound: CC1=NN=C(O1)C2=NN=C(C=C2)N3CCC(CC3)OC4=C(C=CC(=C4)F)Cl + O=C(c1cc(Cc2n[nH]c(=O)c3ccccc23)ccc1F)N1CCN(C(=O)C2CC2)CC1 [Olaparib] (partner 8 µM)
Method in brief: as §1

[3] = compound: CC1=NN=C(O1)C2=NN=C(C=C2)N3CCC(CC3)OC4=C(C=CC(=C4)F)Cl + Cc1cc(Nc2cc(N3CCN(C)CC3)nc(Sc3ccc(NC(=O)C4CC4)cc3)n2)n[nH]1 [Tozasertib] (partner 0.1 µM)
Method in brief: as §1

[4] = compound: CC(C)C[C@@H](C(=O)N[C@H](C(=O)OC1CCCC1)c1ccccc1)[C@H](O)C(=O)NO [Tosedostat] + CS(=O)(=O)N1CCN(Cc2cc3nc(-c4cccc5[nH]ncc45)nc(N4CCOCC4)c3s2)CC1 [Pictilisib] (partner 1 µM)
Method in brief: as §1

Cell Line | relative viability ([1]; first compound 0.02 µM) | relative viability ([1]; first compound 0.06325 µM) | relative viability ([1]; first compound 0.2 µM) | relative viability ([1]; first compound 0.6325 µM) | relative viability ([1]; first compound 2 µM) | relative viability ([2]; first compound 0.253 µM) | relative viability ([2]; first compound 0.8 µM) | relative viability ([2]; first compound 2.53 µM) | relative viability ([2]; first compound 8 µM) | relative viability ([3]; first compound 0.253 µM) | relative viability ([3]; first compound 0.8 µM) | relative viability ([3]; first compound 2.53 µM) | relative viability ([3]; first compound 8 µM) | relative viability ([4]; first compound 0.02 µM) | relative viability ([4]; first compound 0.06325 µM) | relative viability ([4]; first compound 0.2 µM) | relative viability ([4]; first compound 0.6325 µM) | relative viability ([4]; first compound 2 µM)
NCI-H2342 | 0.944 | 1.01 | 1.27 | 0.924 | 0.89 | 0.305 | 0.309 | 0.369 | 0.363 | 0.356 | 0.411 | 0.417 | 0.404 | – | – | – | – | –
SK-MES-1 | 0.691 | 0.889 | 0.914 | 0.873 | 0.86 | 0.497 | 0.507 | 0.538 | 0.507 | 0.633 | 0.641 | 0.551 | 0.521 | 0.382 | 0.317 | 0.381 | 0.315 | 0.311
NCI-H1355 | 0.93 | 0.991 | 0.99 | 0.92 | 0.883 | 0.378 | 0.422 | 0.75 | 0.596 | 0.496 | 0.344 | 0.402 | 0.365 | 0.449 | 0.441 | 0.352 | 0.329 | 0.354
HCC-366 | 0.913 | 0.948 | 0.972 | 0.927 | 0.935 | 0.117 | 0.139 | 0.258 | 0.157 | 0.076 | 0.0654 | 0.0544 | 0.0419 | 0.167 | 0.154 | 0.0818 | 0.151 | 0.103
201T | 1.11 | 1.24 | 1.22 | 1.32 | 1.17 | 0.409 | 0.382 | 0.389 | 0.383 | 0.421 | 0.432 | 0.427 | 0.421 | 0.669 | 0.682 | 0.788 | 0.78 | 0.762
HCC-827 | 0.999 | 1.09 | 1.06 | 0.946 | 0.895 | 0.396 | 0.242 | 0.401 | 0.386 | 0.174 | 0.161 | 0.171 | 0.144 | 1.02 | 0.991 | 1.3 | 0.885 | 1.09
PC-14 | 0.948 | 0.936 | 0.987 | 0.868 | 0.912 | 0.257 | 0.226 | 0.317 | 0.266 | 0.523 | – | 0.433 | 0.557 | 0.789 | 0.647 | 0.555 | 0.385 | 0.458
NCI-H2228 | 0.998 | 0.774 | 1.11 | 0.768 | 0.751 | 0.461 | 0.291 | 0.702 | 0.637 | 0.214 | 0.198 | 0.212 | 0.207 | 0.438 | 0.492 | 0.347 | 0.354 | 0.217
NCI-H727 | 0.908 | 0.622 | – | 0.602 | 0.487 | 0.68 | 0.7 | 0.656 | 0.665 | 0.65 | 0.804 | 0.53 | 0.668 | 0.36 | 0.267 | 0.276 | 0.373 | 0.29
NCI-H1650 | 1.05 | 0.955 | 1.03 | 0.985 | 0.967 | 0.516 | 0.645 | 0.642 | 0.597 | – | 0.357 | 0.361 | 0.235 | 0.696 | 0.599 | 0.652 | 0.645 | 0.558
A-427 | 0.979 | 1 | 1.07 | 1.12 | 0.877 | 0.527 | 0.634 | 0.744 | 0.669 | 0.23 | – | 0.168 | 0.168 | 0.736 | 0.643 | 0.727 | 0.662 | 0.564
NCI-H650 | 1.05 | 1.04 | 0.92 | 0.941 | 0.765 | 0.39 | 0.227 | 0.407 | 0.382 | 0.724 | 0.698 | 0.676 | 0.682 | 0.933 | 0.736 | 0.709 | 0.696 | 0.578
NCI-H1792 | – | – | – | – | – | 0.264 | 0.376 | 0.337 | 0.364 | – | – | – | – | 0.282 | 0.279 | 0.272 | 0.232 | 0.276
NCI-H2009 | 1.34 | 1.15 | 1.19 | 1.11 | 1.09 | 0.363 | 0.39 | 0.421 | 0.375 | 0.372 | 0.39 | 0.376 | 0.353 | 1.14 | 0.841 | 0.682 | 0.732 | 0.524
Calu-6 | 1.04 | 0.858 | 0.826 | 0.638 | 0.559 | 0.381 | 0.389 | 0.385 | 0.384 | – | – | – | – | 0.975 | 0.87 | 0.778 | 0.757 | 0.651
NCI-H1975 | 0.986 | 0.985 | 1.12 | 0.71 | 0.699 | 0.466 | 0.574 | 0.518 | 0.533 | – | 0.595 | 0.48 | 0.261 | 0.28 | 0.311 | 0.252 | 0.25 | 0.241
LOU-NH91 | 0.981 | 0.955 | 0.882 | 0.887 | 0.871 | – | 0.818 | 0.879 | 0.883 | 0.585 | 0.587 | 0.664 | 0.677 | 0.594 | 0.53 | 0.568 | 0.495 | 0.501
EMC-BAC-2 | 0.954 | 1.02 | 0.999 | 1.1 | 0.838 | 0.376 | 0.414 | 0.457 | 0.441 | 0.314 | 0.274 | 0.283 | 0.284 | 0.614 | 0.544 | 0.504 | 0.544 | 0.526
LK-2 | 1.1 | 0.926 | 1.02 | 1.11 | 1.68 | 0.757 | 0.58 | 0.655 | 0.672 | 0.171 | 0.176 | 0.176 | 0.134 | 0.613 | 0.583 | 0.576 | 0.606 | 0.812
